pEC50, pIC50, pKi: −log10 of the molar value. Blank lines part the entries; values can stand above or below the compound they belong to.
How the values were obtained:
[1] = target: T1, Sodium/glucose cotransporter 2 (Homo sapiens, UniProt P31639); assay: Inhibition of human kidney SGLT2 assessed as renal glucose reabsorption
T1 sequence (P31639 whole entry): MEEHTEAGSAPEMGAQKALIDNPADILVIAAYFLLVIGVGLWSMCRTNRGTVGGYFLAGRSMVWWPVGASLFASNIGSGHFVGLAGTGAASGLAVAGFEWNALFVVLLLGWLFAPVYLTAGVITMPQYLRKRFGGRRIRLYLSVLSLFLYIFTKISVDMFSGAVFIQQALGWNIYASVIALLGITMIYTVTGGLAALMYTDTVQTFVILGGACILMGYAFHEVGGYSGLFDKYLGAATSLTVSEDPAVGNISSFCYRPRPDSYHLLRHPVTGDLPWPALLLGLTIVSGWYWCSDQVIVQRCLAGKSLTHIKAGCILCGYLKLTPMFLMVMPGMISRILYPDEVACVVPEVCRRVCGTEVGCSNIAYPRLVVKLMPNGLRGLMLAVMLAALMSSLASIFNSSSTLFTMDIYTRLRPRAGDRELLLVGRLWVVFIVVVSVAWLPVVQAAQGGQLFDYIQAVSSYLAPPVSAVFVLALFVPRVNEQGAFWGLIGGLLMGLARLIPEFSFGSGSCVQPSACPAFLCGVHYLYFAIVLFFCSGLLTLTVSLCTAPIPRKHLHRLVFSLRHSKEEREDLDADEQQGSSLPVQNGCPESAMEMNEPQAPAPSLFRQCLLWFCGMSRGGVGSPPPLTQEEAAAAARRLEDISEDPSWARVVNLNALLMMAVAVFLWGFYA

Rattus norvegicus [2] = assay: Antidiabetic activity in normal Sprague-Dawley rat assessed as urinary glucose excretion at 100 mg/kg, po after 24 hrs; assay type: functional, Urine
Rattus norvegicus [3] = assay: Antidiabetic activity in normal Sprague-Dawley rat assessed as urinary glucose excretion at 10 mg/kg, po after 24 hrs; assay type: functional, Urine
Rattus norvegicus [4] = assay: Antidiabetic activity in normal Sprague-Dawley rat assessed as urinary glucose excretion at 30 mg/kg, po after 24 hrs; assay type: functional, Urine
Rattus norvegicus [5] = assay: Antidiabetic activity in normal Sprague-Dawley rat assessed as urinary glucose excretion at 300 mg/kg, po after 24 hrs; assay type: functional, Urine
Homo sapiens [6] = assay: Antidiabetic activity in po dosed type 2 diabetes mellitus patient assessed as reduction in HbA1C level in small intestine; assay type: functional; set-up: scale not given: the % may be the effect or the level left
Homo sapiens [7] = assay: Antidiabetic activity in po dosed type 2 diabetes mellitus patient assessed as reduction in HbA1C level […]; assay type: functional; set-up: scale not given: the % may be the effect or the level left
[8] = Clearance in normal human at 10 to 100 mg/day, po administered as single ascending dose; conditions: in vivo
clinical = conditions: human, in vivo, po
[9] = Half life in normal human at 10 to 100 mg/day, po administered as single ascending dose; conditions: in vivo
Rattus norvegicus [10] = assay: Antidiabetic activity in normal Sprague-Dawley rat assessed as urinary glucose excretion at 1 mg/kg, po after 24 hrs; assay type: functional, Urine
Homo sapiens [11] = species on record: Homo sapiens; assay: Antidiabetic activity in type 2 diabetes mellitus patient assessed as reduction body weight; assay type: functional; set-up: scale not given: the % may be the effect or the level left
Homo sapiens [12] = assay: Antidiabetic activity in type 2 diabetes mellitus patient assessed as reduction in HbA1C level at 750 mg, po daily measured after 12 weeks; assay type: functional; set-up: scale not given: the % may be the effect or the level left
Homo sapiens [13] = assay: Antidiabetic activity in po dosed type 2 diabetes mellitus patient assessed as reduction in HbA1C level in intestine; assay type: functional; set-up: scale not given: the % may be the effect or the level left
Homo sapiens [14] = assay: Antidiabetic activity in po dosed type 2 diabetes mellitus patient assessed as reduction in HbA1C level in liver; assay type: functional; set-up: scale not given: the % may be the effect or the level left
Rattus norvegicus [15] = assay: Antidiabetic activity in normal Sprague-Dawley rat assessed as urinary glucose excretion at 3 mg/kg, po after 24 hrs; assay type: functional, Urine
Homo sapiens [16] = species on record: Homo sapiens; assay: Selectivity for human SGLT2 over human SGLT1
Homo sapiens [17] = assay: Antidiabetic activity in po dosed type 2 diabetes mellitus patient assessed as reduction in HbA1C level in skeletal muscle; assay type: functional, Muscle tissue; set-up: scale not given: the % may be the effect or the level left
Homo sapiens [18] = assay: Antidiabetic activity in po dosed type 2 diabetes mellitus patient assessed as reduction in HbA1C level in adipose tissue; assay type: functional; set-up: scale not given: the % may be the effect or the level left
Homo sapiens [19] = assay: Antidiabetic activity in over-weight subject assessed as reduction of body weight at […], po tid for 2 weeks; assay type: functional
Homo sapiens [20] = assay: Antidiabetic activity in normal human assessed as plasma glucose level at 500 mg, po after 4 hrs by OGTT; assay type: functional
Homo sapiens [21] = assay: Antidiabetic activity in normal human assessed as reduction urinary glucose excretion at 200 mg, po after 24 hrs; assay type: functional, Urine
Homo sapiens [22] = assay: Antidiabetic activity in normal human assessed as reduction urinary glucose excretion at 500 mg, po after 24 hrs; assay type: functional, Urine

pIC50 [1]: 7.30
Structure (SMILES): Cc1cc(O)c(C(=O)CCc2ccc3occc3c2)c(O[C@@H]2O[C@H](CO)[C@@H](O)[C@H](O)[C@H]2O)c1

pEC50 [1]: 6.30
Structure (SMILES): CCNC(=O)c1c(O)c(Cc2ccc(OC)cc2)cc([C@@H]2O[C@H](CO)[C@@H](O)[C@H](O)[C@H]2O)c1O

Structure (SMILES): COC(=O)OC[C@H]1O[C@@H](Oc2cc(C)cc(O)c2C(=O)CCc2ccc3occc3c2)[C@H](O)[C@@H](O)[C@@H]1O
Activity (Rattus norvegicus [2]): 1000 mg
Activity (Rattus norvegicus [3]): 50 mg
Activity (Rattus norvegicus [4]): 450 mg
Activity (Rattus norvegicus [5]): 2000 mg

pEC50 [1]: < 8.70
Structure (SMILES): CCc1ccc(Cc2ccccc2[C@@H]2O[C@H](CO)[C@@H](O)[C@H](O)[C@H]2O)cc1

Structure (SMILES): C[C@H]1O[C@H](O[C@H]2[C@H](O)[C@@H](O)[C@@H](O[C@H]3[C@H](O)[C@@H](O)C(O)O[C@@H]3CO)O[C@@H]2CO)[C@H](O)[C@@H](O)[C@@H]1N[C@H]1C=C(CO)[C@@H](O)[C@H](O)[C@H]1O (stereo partly specified) [ACARBOSE]
Activity (Homo sapiens [6]): 0.5%
Activity (Homo sapiens [7]): 0.5%

CL/F [8]: 6 mL/min
Tmax (clinical): 1 h
half-life [9]: 15 h
Structure (SMILES): CCOc1ccc(Cc2cc([C@@H]3O[C@H](CO)[C@@H](O)[C@H](O)[C@H]3O)ccc2Cl)cc1 [DAPAGLIFLOZIN]
Activity (Rattus norvegicus [10]): 1100 mg

Structure (SMILES): CCC1=C(C)CN(C(=O)NCCc2ccc(S(=O)(=O)NC(=O)N[C@H]3CC[C@H](C)CC3)cc2)C1=O [GLIMEPIRIDE]
Activity (Homo sapiens [7]): 1%

Structure (SMILES): C/N=C(\N)N(C)C(=N)N.Cl [METFORMIN XR]
Activity (Homo sapiens [11]): 2.3%
Activity (Homo sapiens [12]): 0.73%

Structure (SMILES): CN(C)C(=N)NC(=N)N [METFORMIN]
Activity (Homo sapiens [13]): 1%
Activity (Homo sapiens [7]): 1%
Activity (Homo sapiens [14]): 1%

Structure (SMILES): O=C(CCc1ccc(O)cc1)c1c(O)cc(O)cc1O[C@@H]1O[C@H](CO)[C@@H](O)[C@H](O)[C@H]1O [PHLORIZIN]
Activity (Rattus norvegicus [5]): 80 mg

Structure (SMILES): CCOC(=O)OC[C@H]1O[C@@H](Oc2nn(C(C)C)c(C)c2Cc2ccc(OC(C)C)cc2)[C@H](O)[C@@H](O)[C@@H]1O [REMOGLIFLOZIN ETABONATE]
Activity (Rattus norvegicus [3]): 320 mg
Activity (Rattus norvegicus [10]): 36 mg
Activity (Rattus norvegicus [15]): 95 mg

pEC50 [1]: 7.85
pKi [1]: 7.91
Ratio (Homo sapiens [16]): 365
Structure (SMILES): Cc1c(Cc2ccc(OC(C)C)cc2)c(O[C@@H]2O[C@H](CO)[C@@H](O)[C@H](O)[C@H]2O)nn1C(C)C [REMOGLIFLOZIN]

Structure (SMILES): CCOc1cc(CC(=O)N[C@@H](CC(C)C)c2ccccc2N2CCCCC2)ccc1C(=O)O [REPAGLINIDE]
Activity (Homo sapiens [7]): 1%

Structure (SMILES): CN(CCOc1ccc(CC2SC(=O)NC2=O)cc1)c1ccccn1 (stereo unspecified) [ROSIGLITAZONE]
Activity (Homo sapiens [14]): 0.5%
Activity (Homo sapiens [17]): 0.5%
Activity (Homo sapiens [18]): 0.5%

pEC50 [1]: 8.05
pKi [1]: 8.62
Ratio (Homo sapiens [16]): 296
Structure (SMILES): COc1ccc(Cc2ccccc2O[C@@H]2O[C@H](CO)[C@@H](O)[C@H](O)[C@H]2O)cc1 [SERGLIFLOZIN A]

Structure (SMILES): CCOC(=O)OC[C@H]1O[C@@H](Oc2ccccc2Cc2ccc(OC)cc2)[C@H](O)[C@@H](O)[C@@H]1O [SERGLIFLOZIN ETABONATE]
Activity (Homo sapiens [19]): 1.5 kg
Activity (Homo sapiens [20]): 7 mmol·h/L
Activity (Rattus norvegicus [3]): 180 mg
Activity (Homo sapiens [21]): 12 g
Activity (Rattus norvegicus [4]): 400 mg
Activity (Homo sapiens [22]): 17 g
Activity (Rattus norvegicus [15]): 80 mg

Structure (SMILES): N[C@@H](CC(=O)N1CCn2c(nnc2C(F)(F)F)C1)Cc1cc(F)c(F)cc1F [SITAGLIPTIN]
Activity (Homo sapiens [13]): 0.6%
